{"source": "patent US20170349879A1", "about": "“METHOD FOR CULTURING NORMAL CELLS AND ODONTOMA CELLS CONTAINED IN ORAL TISSUE” (CHIBA UNIVERSITY, priority 2014, published 2017)", "assay_type_in_all_cases": "cell-based, human", "key": {"salivary gland cells [1]": {"system": "salivary gland cells", "test": "Analysis of cytomorphological changes by immunocytological fluorescent staining of the cytoskeleton (F-actin)", "conditions": "salivary gland cells in Rock inhibitor-containing medium vs inhibitor-free medium; FIG. 4", "experimental": "In this section, cytomorphological changes caused by the presence or absence of a Rock inhibitor were analyzed by immunocytological fluorescent staining of the cytoskeleton. Analytes were treated by the same experimental procedures as shown in (2.2) above. As an antibody, Acti-stain 670 fluorescent Phallodin (F-actin) (Cytoskeleton) was reacted at room temperature for 1 hour."}, "fibroblasts": {"system": "fibroblasts", "test": "Cell culture of fibroblasts using a Rho kinase inhibitor (cell morphology)", "conditions": "inhibitor-containing medium (10 μM); passage 7 with inhibitor vs passage 2 without; FIG. 13", "experimental": "(§1) Odontoma cells, oral mucosal epithelial cells, fibroblasts, and cancer-associated fibroblasts (CAFs) (i) Patient-derived cells for use as a source material were taken in a required amount as described above. (ii) The cells were washed three times with phosphate-buffered physiological saline (PBS) (supplemented with 10 units/ml of penicillin and 100 μg/ml of streptomycin: Sigma-Aldrich). (iii) The cells were cut into small pieces with sterilized iris scissors and a surgical knife (No. 11). (iv) After addition of trypsin (TrypLE Select Enzyme, Gibco, Code No. A12177-01), the cells were shaken at 37° C. for 30 minutes. (v) The cells were mixed with Dulbecco's modified Eagle medium (DMEM: Sigma-Aldrich) (supplemented with 10% fetal bovine serum: Nichirei Bioscience Inc., Japan, 10 units/ml of penicillin and 100 μg/ml of streptomycin), and centrifugation (at 1000 rpm for 5 minutes) was repeated three times. (vi) The cells were mixed with DMEM (supplemented with 10% fetal bovine serum, 10 units/ml of penicillin, 100 μg/ml of streptomycin, 10 μM of the Rock kinase inhibitor and 0.3 μM of L-ascorbic acid 2-phosphate: Sigma-Aldrich) (DMEM+) and then seeded into collagen type I-coated cell culture dishes (IWAKI). (vii) The cells were washed with PBS once every three days to replace the above medium. (viii) The cultured cells were subcultured at 80% confluency. […]"}, "[2]": {"system": "telomerase reverse transcriptase (TERT)", "test": "Quantitative RT-PCR of TERT (immortalization) in salivary gland cells", "conditions": "salivary gland cells in Rock inhibitor-containing medium; FIG. 6B", "experimental": "Primary cultured salivary gland cells were cultured in a medium containing a Rock inhibitor and analyzed for their proliferation by Western blotting of proliferating cell nuclear antigen (PCNA: Santa Cruz) and for their apoptosis by Western blotting of caspase-3 (CST). For analysis of their immortalization, the expression of telomerase reverse transcriptase (TERT) was analyzed by quantitative RT-PCR assay. Quantitative RT-PCR of TERT was conducted in the same manner as shown in (2.1) above. The primers used are as shown below. The universal probe used was #19."}, "odontoma cells": {"system": "odontoma cells", "test": "Cell culture of odontoma cells using a Rho kinase inhibitor (cell morphology)", "conditions": "inhibitor-containing medium (10 μM); passage 5 with inhibitor vs passage 0 without; FIG. 11", "experimental": "as §1"}, "salivary gland cells [3]": {"system": "salivary gland cells", "test": "Primary culture and subculture of salivary gland cells using a Rock inhibitor (cell morphology)", "conditions": "Rock inhibitor-containing medium (10 μM), vs standard medium; FIG. 1", "experimental": "as §1, with “(i)” for “Odontoma cells, oral mucosal epithelial cells, fibroblasts, and cancer-associated fibroblasts (CAFs) (i)”, “Patient-derived salivary gland” for “Patient-derived”, “from the labial glands of each patient.” for “as described above.”, “1-coated” for “I-coated”, “(i)” for “(viii)”, “confluency. The cells were washed three times with phosphate-buffered physiological saline.” for “confluency.”"}}, "data": [{"smiles": "CC(N)[C@H]1CC[C@H](C(=O)Nc2ccncc2)CC1", "note": "(stereo partly drawn) [Rock inhibitor, (R)-(+)-trans-N-(4-pyridyl)-4-(1-aminoethyl)-cyclohexanecarboxamide]", "values": [{"measurement": "cytoskeleton (F-actin) morphology", "setting": "salivary gland cells [1]", "value": "honeycomb-like skeleton"}, {"measurement": "cell morphology of fibroblasts on repeated subculture", "setting": "fibroblasts", "value": "maintain their cell morphology even when repeatedly subcultured"}, {"measurement": "TERT expression", "setting": "[2]", "value": "no difference was also observed"}, {"measurement": "cell morphology of odontoma cells on repeated subculture", "setting": "odontoma cells", "value": "maintain their cell morphology even when repeatedly subcultured"}, {"measurement": "cell morphology of salivary gland cells on repeated subculture", "setting": "salivary gland cells [3]", "value": "maintain their cell morphology arranged in a cobblestone pattern even when repeatedly subcultured"}]}]}
